The record followed here is patent US8012956B2, “Tropane compounds” (Exelixis, Inc., priority 2007, dated 2011).

SMILES strings stand for the structures.

The target in this assay is HSP90 (Homo sapiens, UniProt P07900). Description: HSP90 inhibition (HSP90 IC50). The class given is biochemical.
For the compound `COc1cccc(C(=O)N[C@H]2C[C@H]3CC[C@@H](C2)N3c2ccc(C(=O)NCCC(C)(C)C)cn2)c1C` [N-(3,3-dimethylbutyl)-6-[3-endo-({[2-methyl-3-(methyloxy)phenyl]carbonyl}amino)-8-azabicyclo[3.2.1]oct-8-yl]pyridine-3-carboxamide], the half-maximal inhibitory concentration (IC50) (as a rule, the concentration that gives 50% inhibition) is 2000 to 10000 nM.
In the case of `COc1cccc(C(=O)N[C@H]2C[C@H]3CC[C@@H](C2)N3c2ccc(C(=O)Nc3cc(C)cc(C)c3)cn2)c1C` [N-(3,5-dimethylphenyl)-6-[3-endo-({[2-methyl-3-(methyloxy)phenyl]carbonyl}amino)-8-azabicyclo[3.2.1]oct-8-yl]pyridine-3-carboxamide], the IC50 was 2000 to 10000 nM.
`COc1cccc(C(=O)N[C@H]2C[C@H]3CC[C@@H](C2)N3c2ccc(C(=O)Nc3cccc(Cl)c3)cn2)c1C` [N-(3-chlorophenyl)-6-[3-endo-({[2-methyl-3-(methyloxy)phenyl]carbonyl)amino)-8-azabicyclo[3.2.1]oct-8-yl]pyridine-3-carboxamide] gave an IC50 of 2000 to 10000 nM.
With `COc1cccc(C(=O)N[C@H]2C[C@H]3CC[C@@H](C2)N3c2ccc(C(=O)NCCC(C)C)cn2)c1C` [N-(3-methylbutyl)-6-[3-endo-({[2-methyl-3-(methyloxy)phenyl]carbonyl}amino)-8-azabicyclo[3.2.1]oct-8-yl]pyridine-3-carboxamide] the figure was 1000 to 2000 nM; with `COc1cccc(C(=O)N[C@H]2C[C@H]3CC[C@@H](C2)N3c2ccc(C(=O)Nc3ccc(F)cc3)cn2)c1C` [N-(4-fluorophenyl)-6-[3-endo-({[2-methyl-3-(methyloxy)phenyl]carbonyl}amino)-8-azabicyclo[3.2.1]oct-8-yl]pyridine-3-carboxamide], 1000 to 2000 nM; with `COc1cccc(C(=O)N[C@H]2C[C@H]3CC[C@@H](C2)N3c2ccc(C(=O)Nc3ccc(OCCN(C)C)cc3)cn2)c1C` [N-(4-{[2-(dimethylamino)ethyl]oxy}phenyl)-6-[3-endo-({[2-methyl-3-(methyloxy)phenyl]carbonyl}amino)-8-azabicyclo[3.2.1]oct-8-yl]pyridine-3-carboxamide], 500 to 999 nM.
With `CN1CCN(c2ccc(CNC(=O)c3ccc(N4[C@@H]5CC[C@H]4C[C@@H](NC(=O)c4ccc(C(N)=O)cc4)C5)nc3)cc2)CC1` [N-(8-{5-[({[4-(4-methylpiperazin-1-yl)phenyl]methyl}amino)carbonyl]pyridin-2-yl}-8-azabicyclo[3.2.1]oct-3-endo-yl)benzene-1,4-dicarboxamide], the IC50 is under 500 nM.
On to `COc1cccc(C(=O)N[C@H]2C[C@H]3CC[C@@H](C2)N3c2ccc(C(=O)NCC3CC3)cn2)c1C` [N-(cyclopropylmethyl)-6-[3-endo-({[2-methyl-3-(methyloxy)phenyl]carbonyl}amino)-8-azabicyclo[3.2.1]oct-8-yl]pyridine-3-carboxamide], for which the concentration for half-maximal inhibition (IC50) lay within 500 to 999 nM.
With `COc1cccc(C(=O)N[C@H]2C[C@H]3CC[C@@H](C2)N3c2ccc(C(=O)NCc3ccco3)cn2)c1C` [N-(furan-2-ylmethyl)-6-[3-endo-({[2-methyl-3-(methyloxy)phenyl]carbonyl}amino)-8-azabicyclo[3.2.1]oct-8-yl]pyridine-3-carboxamide], the IC50 is under 500 nM.
With `COc1cccc(C(=O)NC2CC3CCC(C2)N3c2ccc(C(=O)NC(C)c3c(F)cc(C4CCNCC4)cc3F)cn2)c1C` (stereo not drawn) [N-[1-(2,6-difluoro-4-piperidin-4-ylphenyl)ethyl]-6-[3-endo-({[2-methyl-3-(methyloxy)phenyl]carbonyl}amino)-8-azabicyclo[3.2.1]oct-8-yl]pyridine-3-carboxamide] the figure was 2000 to 10000 nM; with `COc1cccc(C(=O)NC2CC3CCC(C2)N3c2ccc(C(=O)NC(C)c3ccc(C4CCNCC4)cc3F)cn2)c1C` (stereo not drawn) [N-[1-(2-fluoro-4-piperidin-4-ylphenyl)ethyl]-6-[3-endo-({[2-methyl-3-(methyloxy)phenyl]carbonyl}amino)-8-azabicyclo[3.2.1]oct-8-yl]pyridine-3-carboxamide], under 500 nM.
